Data published in patent US20170001990A1 (Genentech, Inc., priority 2014, published 2017).

biological target: Human recombinant carboxy-terminal his-tagged LDHA (amino acids 2-332) (Homo sapiens, UniProt P00338); assay: LDHA enzyme inhibition assay (NADH fluorescence); conditions: LDHA IC50 (μM), 1 nM LDHA, NADH and pyruvate, stereochemistry of tested sample given
Experimental: Test compounds were diluted in 100% DMSO with 1:3 serial dilutions. […] For the enzyme reaction, serially diluted compounds were added to a mixture of enzyme and NADH. […] Following the baseline read, pyruvate was added to the assay plates and the plates were read with excitation 340 nm and emission 480 nm for 10 minutes every 2.5 seconds. A suitable linear timeframe was selected (150-400 s) to calculate the slope of each concentration tested. The raw data were fitted to 4-parameter dose-response curves using the following equation:
fit=(A+((B−A)/(1+((C/x)̂D))))
inv=(C/((((B−A)/(y−A))−)̂(1/D)))
res=(y−fit) • where A=minimum y, B=maximum y, C=50% y max, and D=slope factor.
The curve bottom was set to the background rate (initial 5 second recording prior to addition of pyruvate) and curve top was set to no inhibitor (DMSO only) control wells rate.
The compounds of the present invention were tested for their capacity to inhibit LDHA activity and activation as described in the enzyme inhibition assay described above.

Question: For O=C1CC(c2ccsc2)(c2cccc(OCCC3CCCC3)n2)NC(=O)C1Sc1ccccc1Cl (single isomer, unassigned) [Example 113, 3-((2-chlorophenyl)thio)-6-(6-(2-cyclopentyl-ethoxy)pyridin-2-yl)-6-(thiophen-3-yl)piperidine-2,4-dione], which IC50 is on record?
Answer: Its IC50 is 0.014 µM.

Question: Which IC50 does the source give for CC(C)(O)CCCOc1cccc(C2(c3ccsc3)CC(=O)C(Sc3ccccc3Cl)C(=O)N2)n1 (single isomer, unassigned) [Example 114, 3-((2-chlorophenyl)thio)-6-(6-((4-hydroxy-4-methyl-pentyl)oxy)pyridin-2-yl)-6-(thiophen-3-yl) piperidine-2,4-dione] here?
Answer: Its IC50 is 0.053 µM.

Question: With O=C1CC(c2ccsc2)(c2cccc(Oc3cccc(C(F)F)c3)n2)NC(=O)C1Sc1ccccc1Cl (single isomer, unassigned) [Example 115, 3-(2-chlorophenyl)sulfanyl-6-[6-[3-(difluoromethyl)phenoxy]-2-pyridyl]-6-(3-thienyl)piperidine-2,4-dione] as the compound, how does the IC50 read?
Answer: Its IC50 is 0.031 µM.

Question: With O=C1CC(c2ccsc2)(c2cccc(Oc3ccccc3Br)n2)NC(=O)C1Sc1ccccc1Cl (single isomer, unassigned) [Example 116, 6-[6-(2-bromophenoxy)-2-pyridyl]-3-(2-chlorophenyl) sulfanyl-6-(3-thienyl) piperidine-2,4-dione] as the compound, how does the IC50 read?
Answer: The IC50 was 0.376 µM.

Question: For O=C1CC(c2ccsc2)(c2cccc(Oc3ccc4ncccc4c3)n2)NC(=O)C1Sc1ccccc1Cl (single isomer, unassigned) [Example 117, 3-(2-chlorophenyl)sulfanyl-6-[6-(6-quinolyloxy)-2-pyridyl]-6-(3-thienyl) piperidine-2,4-dione], which IC50 is on record?
Answer: The IC50 was 0.076 µM.

Question: O=C1CC(c2ccsc2)(c2cccc(Cc3ccccc3)n2)NC(=O)C1Sc1ccccc1Cl (single isomer, unassigned) [Example 118, 6-(6-benzylpyridin-2-yl)-3-((2-chloropnenyl)thio)-6-(thiophen-3-yl) piperidine-2,4-dione] was tested. Which IC50 did it give?
Answer: Its IC50 is 0.622 µM.

Question: With CC(C)CCOc1cccc(C2(c3ccsc3)CC(=O)C(Sc3ccccc3Cl)C(=O)N2)n1 (single isomer, unassigned) [Example 119, 3-(2-chlorophenyl)sulfanyl-6-(6-isopentyloxy-2-pyridyl)-6-(3-thienyl) piperidine-2,4-dione] as the compound, how does the IC50 read?
Answer: Its IC50 is 0.293 µM.

Question: With O=C1CC(c2ccsc2)(c2cccc(Oc3ccc4ncccc4c3)n2)NC(=O)C1Sc1ccccc1Cl (single isomer, unassigned) [Example 120, 3-(2-chlorophenyl)sulfanyl-6-[6-(6-quinolyloxy)-2-pyridyl]-6-(3-thienyl) piperidine-2,4-dione] as the compound, how does the IC50 read?
Answer: Its IC50 is 0.016 µM.

Question: O=C1CC(c2ccsc2)(c2cccc(OCCCC(F)(F)F)n2)NC(=O)C1Sc1ccccc1Cl (single isomer, unassigned) [Example 121, 3-(2-chlorophenyl)sulfanyl-6-(3-thienyl)-6-[6-(4,4,4-trifluorobutoxy)-2-pyridyl]piperidine-2,4-dione] was tested. Which IC50 did it give?
Answer: The IC50 was 0.008 µM.

Question: O=C1CC(c2ccsc2)(c2cccc(Oc3ccc(F)c(Br)c3)n2)NC(=O)C1Sc1ccccc1Cl (single isomer, unassigned) [Example 122, 6-[6-(3-bromo-4-fluoro-phenoxy)-2-pyridyl]-3-(2-chlorophenyl)sulfanyl-6-(3-thienyl)piperidine-2,4-dione] was tested. Which IC50 did it give?
Answer: The IC50 was 0.022 µM.

Question: With CC(C)CCOc1cccc(C2(c3ccsc3)CC(=O)C(Sc3ccccc3Cl)C(=O)N2)n1 (single isomer, unassigned) [Example 124, 3-((2-chlorophenyl)thio)-6-(6-(isopentyloxy)pyridin-2-yl)-6-(thiophen-3-yl)piperidine-2,4-dione] as the compound, how does the IC50 read?
Answer: Its IC50 is 0.003 µM.

Question: With O=C1CC(c2ccsc2)(c2cccc(OCCC3CCCC3)n2)NC(=O)C1Sc1ccccc1Cl (single isomer, unassigned) [Example 125, 3-((2-chlorophenyl)thio)-6-(6-(2-cyclopentyl-ethoxy)pyridin-2-yl)-6-(thiophen-3-yl) piperidine-2,4-dione] as the compound, how does the IC50 read?
Answer: Its IC50 is 0.003 µM.

Question: CC(C)(O)CCCOc1cccc(C2(c3ccsc3)CC(=O)C(Sc3ccccc3Cl)C(=O)N2)n1 (single isomer, unassigned) [Example 126, 3-(2-chlorophenyl)sulfanyl-6-[6-(4-hydroxy-4-methyl-pentoxy)-2-pyridyl]-6-(3-thienyl) piperidine-2,4-dione] was tested. Which IC50 did it give?
Answer: Its IC50 is 0.238 µM.

Question: How did the IC50 turn out when O=C1CC(c2ccsc2)(c2cccc(Oc3cccc(C(F)F)c3)n2)NC(=O)C1Sc1ccccc1Cl (single isomer, unassigned) [Example 127, 3-(2-chlorophenyl)sulfanyl-6-[6-[3-(difluoromethyl)phenoxy]-2-pyridyl]-6-(3-thienyl)piperidine-2,4-dione] was run?
Answer: The IC50 was 0.008 µM.

Question: O=C1CC(c2ccsc2)(c2cccc(Oc3cccc4ncccc34)n2)NC(=O)C1Sc1ccccc1Cl (single isomer, unassigned) [Example 128, 3-(2-chlorophenyl)sulfanyl-6-[6-(5-quinolyloxy)-2-pyridyl]-6-(3-thienyl) piperidine-2,4-dione] was tested. Which IC50 did it give?
Answer: Its IC50 is 0.024 µM.

Question: For O=C1CC(c2ccsc2)(c2cccc(Cc3cc(F)cc(F)c3)n2)NC(=O)C1Sc1ccccc1Cl (single isomer, unassigned) [Example 129, 3-((2-chlorophenyl)thio)-6-(6-(3,5-difluorobenzyl)pyridin-2-yl)-6-(thiophen-3-yl)piperidine-2,4-dione], which IC50 is on record?
Answer: The IC50 was 0.02 µM.

Question: Which IC50 does the source give for O=C1CC(c2ccsc2)(c2cccc(OCCC3CCC3)n2)NC(=O)C1Sc1ccccc1Cl (single isomer, unassigned) [Example 132, 3-((2-chlorophenyl)thio)-6-(6-(2-cyclobutyl-ethoxy)pyridin-2-yl)-6-(thiophen-3-yl)piperidine-2,4-dione] here?
Answer: Its IC50 is 0.009 µM.

Question: Which IC50 does the source give for CC(C)CCOc1cccc(C2(c3ccsc3)CC(=O)C(Sc3ccccc3Cl)C(=O)N2)n1 (single isomer, unassigned) [Example 133, 3-(2-chlorophenyl)sulfanyl-6-(6-isopentyloxy-2-pyridyl)-6-(3-thienyl) piperidine-2,4-dione] here?
Answer: Its IC50 is 0.089 µM.

Question: O=C1CC(c2ccsc2)(c2cccc(OCCC3CCCC3)n2)NC(=O)C1Sc1ccccc1Cl (single isomer, unassigned) [Example 134, 3-(2-chlorophenyl)sulfanyl-6-[6-(2-cyclopentyl-ethoxy)-2-pyridyl]-6-(3-thienyl)piperidine-2,4-dione] was tested. Which IC50 did it give?
Answer: The IC50 was 0.008 µM.

Question: Which IC50 does the source give for CC(C)(O)CCCOc1cccc(C2(c3ccsc3)CC(=O)C(Sc3ccccc3Cl)C(=O)N2)n1 (single isomer, unassigned) [Example 135, 3-(2-chlorophenyl)sulfanyl-6-[6-(4-hydroxy-4-methyl-pentoxy)-2-pyridyl]-6-(3-thienyl) piperidine-2,4-dione] here?
Answer: The IC50 was 0.04 µM.

Question: O=C1CC(c2ccsc2)(c2cccc(Oc3cccc(C(F)F)c3)n2)NC(=O)C1Sc1ccccc1Cl (single isomer, unassigned) [Example 136, 3-(2-chlorophenyl)sulfanyl-6-[6-[3-(difluoro-methyl)phenoxy]-2-pyridyl]-6-(3-thienyl) piperidine-2,4-dione] was tested. Which IC50 did it give?
Answer: The IC50 was 0.222 µM.

Question: Which IC50 does the source give for O=C1CC(c2ccsc2)(c2cccc(Oc3cccc4ncccc34)n2)NC(=O)C1Sc1ccccc1Cl (single isomer, unassigned) [Example 137, 3-(2-chlorophenyl)sulfanyl-6-[6-(5-quinolyloxy)-2-pyridyl]-6-(3-thienyl) piperidine-2,4-dione] here?
Answer: Its IC50 is 0.073 µM.
